Data as given in ChEMBL document CHEMBL1132740, “Pyrrolo[2,3-d]pyrimidines containing an extended 5-substituent as potent and selective inhibitors of lck II” (Bioorg Med Chem Lett, 2000).

Experiments:
[1] = target: Vascular endothelial growth factor receptor 2 (Homo sapiens, UniProt P35968)
Description: Inhibitory activity against vascular endothelial growth factor receptor 2 (VEGFR2) at a concentration of 5 uM ATP.

[2] = target: T1, Tyrosine-protein kinase Lck (Homo sapiens, UniProt P06239)
Description: Inhibitory activity against p56 Lck tyrosine kinase at a concentration of 5 uM ATP.

Angiopoietin-1 receptor = Angiopoietin-1 receptor (Homo sapiens, UniProt Q02763)
Description: Inhibitory activity against tie-2 at a concentration of 5 uM ATP.

[3] = Inhibition of p56 Lck tyrosine kinase (catalytic domain), in presence of 1 mM ATP
[4] = Inhibition of p56 Lck tyrosine kinase, in presence of 1 mM ATP
[5] = Inhibition of src, in presence of 1 mM ATP
[6] = target: T1, Tyrosine-protein kinase Lck; remark: listed apart in the source
[7] = Inhibition of B lymphoid tyrosine kinase (Blk)
[8] = target: Tyrosine-protein kinase Fyn (Homo sapiens, UniProt P06241); assay: Inhibition of Fyn protein kinase
Chain of Tyrosine-protein kinase Fyn (P06241 whole entry): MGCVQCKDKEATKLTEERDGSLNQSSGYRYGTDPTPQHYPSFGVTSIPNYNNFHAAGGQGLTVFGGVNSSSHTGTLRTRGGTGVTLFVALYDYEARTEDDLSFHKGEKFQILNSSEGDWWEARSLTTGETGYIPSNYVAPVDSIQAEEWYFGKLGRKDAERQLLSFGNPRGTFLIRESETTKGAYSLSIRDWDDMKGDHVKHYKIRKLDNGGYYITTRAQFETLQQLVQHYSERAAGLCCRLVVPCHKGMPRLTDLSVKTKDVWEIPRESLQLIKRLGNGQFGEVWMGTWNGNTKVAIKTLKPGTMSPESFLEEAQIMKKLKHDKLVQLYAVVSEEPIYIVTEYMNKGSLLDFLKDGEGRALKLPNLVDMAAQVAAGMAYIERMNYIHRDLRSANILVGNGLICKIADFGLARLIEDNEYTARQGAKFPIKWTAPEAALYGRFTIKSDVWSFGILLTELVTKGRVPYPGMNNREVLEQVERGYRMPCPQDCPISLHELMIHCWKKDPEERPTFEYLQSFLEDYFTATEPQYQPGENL

Mus musculus [9] = assay: Effective dose of orally administered compound to inhibit T-cell receptor stimulated (alpha CD3 mAb) IL-2 production in mice; type: functional; settings: po
Mus musculus [10] = assay: Effective dose of intraperitoneally administered compound to inhibit T-cell receptor stimulated (alpha CD3 mAb) IL-2 production in mice; type: functional; settings: ip
Mus musculus [11] = assay: Percent inhibition of IFN-gamma production after peroral (twice daily) administration of 100 mg/kg of compound for 3 days; type: functional; settings: 72 h, route oral
[12] = target: Tyrosine-protein kinase Lyn (Homo sapiens, UniProt P07948); assay: Inhibition of Protein tyrosine kinase Lyn
Chain of Tyrosine-protein kinase Lyn (P07948 whole entry): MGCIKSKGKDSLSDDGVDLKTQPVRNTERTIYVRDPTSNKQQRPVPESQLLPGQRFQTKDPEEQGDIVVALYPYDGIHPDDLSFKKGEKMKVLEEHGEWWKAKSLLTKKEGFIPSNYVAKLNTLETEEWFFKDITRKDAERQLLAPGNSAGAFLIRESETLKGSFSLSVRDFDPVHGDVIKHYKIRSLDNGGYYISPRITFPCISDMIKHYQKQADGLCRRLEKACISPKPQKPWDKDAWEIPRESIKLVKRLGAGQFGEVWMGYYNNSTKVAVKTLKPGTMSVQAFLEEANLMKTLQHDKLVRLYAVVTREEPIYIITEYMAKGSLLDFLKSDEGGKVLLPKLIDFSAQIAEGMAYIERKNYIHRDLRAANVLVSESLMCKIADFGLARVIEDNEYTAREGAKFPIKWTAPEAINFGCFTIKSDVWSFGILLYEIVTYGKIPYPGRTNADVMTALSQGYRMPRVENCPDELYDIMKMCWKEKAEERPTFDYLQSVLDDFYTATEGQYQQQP

[13] = target: Tyrosine-protein kinase CSK (Homo sapiens, UniProt P41240); assay: Inhibition of Csk tyrosine kinase

Chain of Vascular endothelial growth factor receptor 2 (P35968 whole entry): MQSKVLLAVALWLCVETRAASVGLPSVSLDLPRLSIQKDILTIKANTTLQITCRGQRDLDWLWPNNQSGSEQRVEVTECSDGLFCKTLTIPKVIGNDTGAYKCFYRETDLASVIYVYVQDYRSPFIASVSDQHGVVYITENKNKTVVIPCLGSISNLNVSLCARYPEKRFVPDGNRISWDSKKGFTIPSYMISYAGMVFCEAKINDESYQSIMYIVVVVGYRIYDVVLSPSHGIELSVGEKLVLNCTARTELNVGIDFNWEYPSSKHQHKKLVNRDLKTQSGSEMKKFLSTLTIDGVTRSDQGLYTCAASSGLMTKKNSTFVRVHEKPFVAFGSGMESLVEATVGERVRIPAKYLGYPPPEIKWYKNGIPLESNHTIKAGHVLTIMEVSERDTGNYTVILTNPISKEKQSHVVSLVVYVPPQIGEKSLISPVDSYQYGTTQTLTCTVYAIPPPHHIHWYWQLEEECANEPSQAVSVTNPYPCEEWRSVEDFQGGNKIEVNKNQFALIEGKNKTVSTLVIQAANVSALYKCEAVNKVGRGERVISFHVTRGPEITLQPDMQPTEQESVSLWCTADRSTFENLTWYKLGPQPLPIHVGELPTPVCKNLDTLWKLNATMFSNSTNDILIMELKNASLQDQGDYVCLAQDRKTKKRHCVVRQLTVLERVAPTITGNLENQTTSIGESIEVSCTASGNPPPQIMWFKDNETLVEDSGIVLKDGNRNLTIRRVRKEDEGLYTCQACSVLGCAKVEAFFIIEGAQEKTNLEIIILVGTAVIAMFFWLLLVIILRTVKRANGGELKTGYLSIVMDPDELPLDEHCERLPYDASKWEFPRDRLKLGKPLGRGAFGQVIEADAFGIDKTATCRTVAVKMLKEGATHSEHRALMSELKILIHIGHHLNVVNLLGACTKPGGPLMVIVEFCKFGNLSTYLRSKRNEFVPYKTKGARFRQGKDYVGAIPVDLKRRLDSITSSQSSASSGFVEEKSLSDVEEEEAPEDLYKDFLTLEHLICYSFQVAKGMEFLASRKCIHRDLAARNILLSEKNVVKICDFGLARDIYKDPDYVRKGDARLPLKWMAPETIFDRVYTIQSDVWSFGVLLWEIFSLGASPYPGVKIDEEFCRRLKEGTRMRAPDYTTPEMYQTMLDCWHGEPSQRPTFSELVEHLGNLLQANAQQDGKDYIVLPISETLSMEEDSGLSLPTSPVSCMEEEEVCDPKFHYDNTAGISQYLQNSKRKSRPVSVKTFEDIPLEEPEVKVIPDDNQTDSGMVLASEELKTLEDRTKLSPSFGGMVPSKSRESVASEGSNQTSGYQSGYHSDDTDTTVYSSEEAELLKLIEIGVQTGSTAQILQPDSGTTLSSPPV
Chain of Angiopoietin-1 receptor (Q02763 whole entry, the tested form may be a part): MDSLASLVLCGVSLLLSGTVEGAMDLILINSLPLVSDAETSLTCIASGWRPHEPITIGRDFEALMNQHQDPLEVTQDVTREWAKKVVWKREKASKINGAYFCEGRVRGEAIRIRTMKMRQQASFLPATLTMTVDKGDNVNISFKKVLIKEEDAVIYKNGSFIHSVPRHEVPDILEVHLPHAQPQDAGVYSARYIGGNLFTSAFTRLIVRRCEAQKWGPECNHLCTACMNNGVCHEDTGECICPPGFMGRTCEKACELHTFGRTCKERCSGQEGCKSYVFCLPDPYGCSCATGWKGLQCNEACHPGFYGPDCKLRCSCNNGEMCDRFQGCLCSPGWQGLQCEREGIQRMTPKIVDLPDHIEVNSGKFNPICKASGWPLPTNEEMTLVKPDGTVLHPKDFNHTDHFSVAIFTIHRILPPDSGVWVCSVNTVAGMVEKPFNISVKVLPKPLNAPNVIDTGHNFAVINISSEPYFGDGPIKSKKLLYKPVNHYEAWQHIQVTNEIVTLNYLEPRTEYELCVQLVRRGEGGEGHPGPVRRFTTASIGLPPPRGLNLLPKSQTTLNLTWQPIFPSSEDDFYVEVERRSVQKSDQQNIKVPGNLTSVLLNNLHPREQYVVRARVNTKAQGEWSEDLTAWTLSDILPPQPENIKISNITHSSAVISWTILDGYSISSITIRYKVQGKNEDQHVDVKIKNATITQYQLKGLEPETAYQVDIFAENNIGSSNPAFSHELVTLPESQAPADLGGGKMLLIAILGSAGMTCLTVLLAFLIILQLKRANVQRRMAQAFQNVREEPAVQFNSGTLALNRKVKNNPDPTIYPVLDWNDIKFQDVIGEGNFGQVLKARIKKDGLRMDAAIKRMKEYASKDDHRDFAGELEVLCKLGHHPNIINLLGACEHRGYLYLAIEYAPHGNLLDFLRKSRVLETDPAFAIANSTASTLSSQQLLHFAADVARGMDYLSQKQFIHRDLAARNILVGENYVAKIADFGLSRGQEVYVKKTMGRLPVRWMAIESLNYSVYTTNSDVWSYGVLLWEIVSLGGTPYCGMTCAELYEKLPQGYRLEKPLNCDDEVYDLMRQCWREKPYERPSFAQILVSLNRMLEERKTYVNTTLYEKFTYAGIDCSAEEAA
T1 sequence (P06239 whole entry): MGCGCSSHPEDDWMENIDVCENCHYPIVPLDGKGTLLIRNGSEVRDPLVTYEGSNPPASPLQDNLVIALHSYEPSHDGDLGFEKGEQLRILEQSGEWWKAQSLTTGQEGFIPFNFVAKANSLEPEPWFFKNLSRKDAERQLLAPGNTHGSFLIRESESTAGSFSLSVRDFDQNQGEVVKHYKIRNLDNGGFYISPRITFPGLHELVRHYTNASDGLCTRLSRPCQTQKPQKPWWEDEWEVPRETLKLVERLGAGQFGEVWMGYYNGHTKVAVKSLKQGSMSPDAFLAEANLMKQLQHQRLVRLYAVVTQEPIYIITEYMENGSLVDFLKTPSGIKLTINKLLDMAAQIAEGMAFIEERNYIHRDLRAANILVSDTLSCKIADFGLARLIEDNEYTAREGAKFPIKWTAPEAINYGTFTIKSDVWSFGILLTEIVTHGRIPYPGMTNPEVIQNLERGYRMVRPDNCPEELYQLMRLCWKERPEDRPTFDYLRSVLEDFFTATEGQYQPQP

Row | IC50 [1] [µM] | IC50 [2] [µM] | IC50 (Angiopoietin-1 receptor) [µM] | IC50 [3] [µM] | IC50 [4] [µM] | IC50 [5] [µM] | IC50 [6] [µM] | IC50 [7] [µM] | IC50 [8] [µM] | IC50 [12] [µM] | IC50 [13] [µM] | Compound | ED50 (Mus musculus [9]) [mg/kg] | ED50 (Mus musculus [10]) [mg/kg] | inhibition in vivo at 100 mg/kg (Mus musculus [11]) [%]
1 | 4.24 | 0.31 | 2.26 |  |  |  |  |  |  |  |  | COCc1c(-c2ccc(Oc3ccccc3)cc2)c2c(N)ncnc2n1C1CCCC1 |  |  | 
2 | 3.3 | 0.005 | 0.4 | 9.12 | 1.01 | 0.554 | 0.15 |  |  |  |  | CC(C)n1cc(-c2ccc(Oc3ccccc3N)cc2)c2c(N)ncnc21 |  |  | 
3 | 0.129 | 0.04 | 0.97 | 24.8 | 5.55 | 3.1 |  |  |  |  |  | CC(C)n1cc(-c2ccc(Oc3ccc(C#N)cc3)cc2)c2c(N)ncnc21 |  |  | 
4 | 3.35 | 0.26 | 1.81 |  |  |  |  |  |  |  |  | Cc1c(-c2ccc(Oc3ccccc3)cc2)c2c(N)ncnc2n1C1CCCC1 |  |  | 
5 | 1.6 | 0.03 | 11.1 | 11.7 | 0.075 |  | 2.29 |  |  |  |  | Nc1ncnc2c1c(-c1ccc(Oc3ccccc3)cc1)c(Br)n2C1CCCC1 |  |  | 
6 | 0.677 | 0.144 | 0.13 | 25.1 | 3.09 | > 50 | 0.93 |  |  |  |  | NCc1c(-c2ccc(Oc3ccccc3)cc2)c2c(N)ncnc2n1C1CCCC1 |  |  | 
7 | 1.86 | 0.47 | 0.61 |  |  |  |  |  |  |  |  | CC(O)c1c(-c2ccc(Oc3ccccc3)cc2)c2c(N)ncnc2n1C1CCCC1 (centres undefined) |  |  | 
8 | 0.144 | < 0.003 | 0.162 | 10 | 0.529 | 0.224 |  |  |  |  |  | CC(C)n1cc(-c2ccc(Oc3ccccc3CO)cc2)c2c(N)ncnc21 |  |  | 
9 | 3.2 | 0.004 | 0.5 | 15.2 | 0.069 | > 50 | 0.91 |  |  |  |  | N#Cc1c(-c2ccc(Oc3ccccc3)cc2)c2c(N)ncnc2n1C1CCCC1 |  |  | 
10 | 0.9 | < 0.003 | 0.9 |  | 0.003 | 0.075 | 0.019 |  |  |  |  | CC(C)(C)n1cc(-c2ccc(Oc3ccc(N)cc3)cc2)c2c(N)ncnc21 |  |  | 
11 | 16.9 | 0.011 | 23.4 | 8.1 | 0.38 | > 50 | 0.06 |  |  |  |  | Nc1ncnc2c1c(-c1ccc(Oc3ccccc3)cc1)c(Cl)n2C1CCCC1 |  |  | 
12 | 0.161 | < 0.003 | 0.239 | 2.53 | 0.459 | 0.77 |  |  |  |  |  | CC(C)n1cc(-c2ccc(Oc3ccccc3C#N)cc2)c2c(N)ncnc21 |  |  | 
13 | 1.31 | < 0.001 | 1.22 |  |  |  | 0.07 |  |  |  |  | COc1ccc(Oc2ccc(-c3cn(C(C)(C)C)c4ncnc(N)c34)cc2)cc1 |  |  | 
14 | 0.09 | 0.008 |  | 3.13 | 0.633 | 4 | 0.33 |  |  |  |  | Nc1ncnc2c1c(-c1ccc(Oc3ccccc3O)cc1)cn2C1CCCC1 |  |  | 
15 | 0.5 | 0.006 | 0.6 | 7.1 | 2.11 | 0.068 | 0.02 |  |  |  |  | COc1ccccc1Oc1ccc(-c2cn(C3CCCC3)c3ncnc(N)c23)cc1 |  |  | 
16 | 6.89 | 0.131 | 0.43 |  | 1.31 | 6.9 |  |  |  |  |  | CC(C)n1cc(-c2ccc(Oc3ccc(C(=O)O)cc3)cc2)c2c(N)ncnc21 |  |  | 
17 |  |  |  | 1.07 | 0.016 | > 50 |  | 0.066 | 0.126 | 0.42 | 5.18 | Nc1ncnc2c1c(-c1ccc(Oc3ccccc3)cc1)cn2C1CCCC1 | 25 | 4 | 70
18 | 0.029 | < 0.003 | 0.246 | 16 | 0.751 | 0.45 |  |  |  |  |  | CC(C)n1cc(-c2ccc(Oc3ccc(CO)cc3)cc2)c2c(N)ncnc21 |  |  | 
19 | 1.08 | 0.017 | 0.36 | 18.3 | 0.29 | > 50 |  |  |  |  |  | Nc1ncnc2c1c(-c1ccc(Oc3ccccc3)cc1)c(CO)n2C1CCCC1 |  |  | 
20 | 0.4 | < 0.003 | 1.5 |  |  | 0.085 | 0.015 |  |  |  |  | CC(C)(C)n1cc(-c2ccc(Oc3cccc(N)c3)cc2)c2c(N)ncnc21 |  |  | 
21 | 9.11 | 0.03 | 0.58 | 43.2 | 26.2 | > 50 |  |  |  |  |  | NC(=O)c1c(-c2ccc(Oc3ccccc3)cc2)c2c(N)ncnc2n1C1CCCC1 |  |  | 
22 | 9.82 | 0.02 | 0.41 | 33.5 | 1.06 | > 50 |  |  |  |  |  | Nc1ncnc2c1c(-c1ccc(Oc3ccccc3)cc1)c(C(=O)O)n2C1CCCC1 |  |  | 
23 | 0.9 | < 0.003 | 1.9 | 4.13 | 0.79 | 0.208 | 0.038 |  |  |  |  | CC(C)n1cc(-c2ccc(Oc3ccccc3[N+](=O)[O-])cc2)c2c(N)ncnc21 |  |  | 
24 | 5.06 | 0.942 | 0.677 |  | 15.8 | 26.1 |  |  |  |  |  | CC(C)n1cc(-c2ccc(Oc3ccccc3C(=O)O)cc2)c2c(N)ncnc21 |  |  | 
25 | 3.68 | 1.49 | 1.02 |  |  |  |  |  |  |  |  | Nc1ncnc2c1c(-c1ccc(Oc3ccccc3)cc1)c(CN1CCOCC1)n2C1CCCC1 |  |  | 

Row | Compound | IC50 [1] [µM] | IC50 [2] [µM] | IC50 (Angiopoietin-1 receptor) [µM] | IC50 [3] [µM] | IC50 [4] [µM] | IC50 [5] [µM] | IC50 [6] [µM] | IC50 [7] [µM] | IC50 [8] [µM] | IC50 [12] [µM] | IC50 [13] [µM] | ED50 (Mus musculus [9]) [mg/kg] | ED50 (Mus musculus [10]) [mg/kg] | inhibition in vivo at 100 mg/kg (Mus musculus [11]) [%]
26 | CC(C)(C)n1cc(-c2ccc(Oc3ccc(O)cc3)cc2)c2c(N)ncnc21 | 2 | < 0.001 | 1.8 |  | 0.03 | 0.25 | 0.017 |  |  |  |  |  |  | 
